Laboratory results reported in patent publication US20040034040A1, “Use of thienopyrimidines” (priority 2000, published 2004).
Structures can show the parent of a compound that is named as a salt.

melting point: 229 °C
Structure (SMILES): COc1ccc(CNc2nc(CCC(=O)O)nc3sc4c(c23)CCCC4)cc1Cl (as salt: salt) [Example 2, 3-[4-(3-chloro-4-methoxybenzylamino)-5,6,7,8-tetrahydro-[1]-benzothieno-[2,3-d]-pyrimidin-2-yl]propionic acid]
